Data as given in patent EP0017478A1, “Dialkoxy- and dioxacycloalkyl-alkyltheobromines, pharmaceutical compositions containing them and their preparation” (BEECHAM - WUELFING GmbH & Co. KG, priority 1979, dated 1980).

Assays:
[1] = Observation of toxic effects at the test dosages; assay type: in vivo; settings: at the test dosage 12.5 mg/kg i.d., cats
Experimental: (§1) Cats of either sex were anaesthetized by i.p. injection of urethane/chloralosc (120/60 mg/kg). The intraduodenal (i.d.) administration of compounds was conducted by means of a plastic.catheter which was inserted into the duodenum following midline incision at the abdominal cavity.

gastrocnemius muscle = assay: Measurement of muscle surface pO2 (multiwire-surface electrode, one femoral artery ligated to induce ischaemia); assay type: in vivo, Cats; settings: 12.5 mg/kg i.d., suspension in Methocel, n = 4; for Cs (significance coefficient = number of measuring sites with significant pO2 increase per total number of measuring sites) / ΔpO2 (mean pO2 increase in experiments with significant pO2 increase): anaesthetized cats; for E (efficiency-index = Cs x ΔpO2): control values E between 0.1 and 1.2 Torr
Experimental: as §1
Measurement of muscle surface p02. The skin above the measuring site (3-4 mm in diameter) was removed and one multiwire-surface electrode (Eschweiler, Kiel) was placed on the gastrocnemius muscle of each hindlimb. The femoral artery in one hindlimb was ligated in order to induce ischaemia. Muscle temperature was controlled by means of a thermocouple (Ellab, Copenhagen). The electrode current was measured every 6 to 8 s and collected for periods of 4 min (Hewlett-Packard programmable data logger system 3051 A). After each period, mean value and standard deviation was calculated.

## Cn1cnc2c1c(=O)n(CCCCC1(C)OCCO1)c(=O)n2C [2-Methyl-2-(theobrominyl-butyl-4)-1,3-dioxalane]
[1]
  toxic effects: No toxic effects were observed
Gastrocnemius muscle; hypoxic tissue
  Cs (significance coefficient = number of measuring sites with significant pO2 increase per total number of measuring sites): 1
  ΔpO2 (mean pO2 increase in experiments with significant pO2 increase): 3.7 Torr
  E (efficiency-index = Cs x ΔpO2): 3.7 Torr
Gastrocnemius muscle; normoxic tissue
  Cs (significance coefficient = number of measuring sites with significant pO2 increase per total number of measuring sites): 1
  ΔpO2 (mean pO2 increase in experiments with significant pO2 increase): 4.8 Torr
  E (efficiency-index = Cs x ΔpO2): 4.8 Torr
